Experimental data: patent EP3807270B1, “NOVEL HETEROARYL HETEROCYCLYL COMPOUNDS FOR THE TREATMENT OF AUTOIMMUNE DISEASE” (F. Hoffmann-La Roche AG, priority 2018, dated 2019)

What follows are molecules tested against T1, hTLR9 (Homo sapiens, UniProt Q9NR96) (assay: HEK293-Blue-hTLR-9 cells assay (SEAP reporter, ODN2006 stimulation)). Details: HEK293-Blue-hTLR9 cells, ODN2006, 20 hrs; read-out: HEK/hTLR9 IC50.
T1 sequence (Q9NR96 26-1032): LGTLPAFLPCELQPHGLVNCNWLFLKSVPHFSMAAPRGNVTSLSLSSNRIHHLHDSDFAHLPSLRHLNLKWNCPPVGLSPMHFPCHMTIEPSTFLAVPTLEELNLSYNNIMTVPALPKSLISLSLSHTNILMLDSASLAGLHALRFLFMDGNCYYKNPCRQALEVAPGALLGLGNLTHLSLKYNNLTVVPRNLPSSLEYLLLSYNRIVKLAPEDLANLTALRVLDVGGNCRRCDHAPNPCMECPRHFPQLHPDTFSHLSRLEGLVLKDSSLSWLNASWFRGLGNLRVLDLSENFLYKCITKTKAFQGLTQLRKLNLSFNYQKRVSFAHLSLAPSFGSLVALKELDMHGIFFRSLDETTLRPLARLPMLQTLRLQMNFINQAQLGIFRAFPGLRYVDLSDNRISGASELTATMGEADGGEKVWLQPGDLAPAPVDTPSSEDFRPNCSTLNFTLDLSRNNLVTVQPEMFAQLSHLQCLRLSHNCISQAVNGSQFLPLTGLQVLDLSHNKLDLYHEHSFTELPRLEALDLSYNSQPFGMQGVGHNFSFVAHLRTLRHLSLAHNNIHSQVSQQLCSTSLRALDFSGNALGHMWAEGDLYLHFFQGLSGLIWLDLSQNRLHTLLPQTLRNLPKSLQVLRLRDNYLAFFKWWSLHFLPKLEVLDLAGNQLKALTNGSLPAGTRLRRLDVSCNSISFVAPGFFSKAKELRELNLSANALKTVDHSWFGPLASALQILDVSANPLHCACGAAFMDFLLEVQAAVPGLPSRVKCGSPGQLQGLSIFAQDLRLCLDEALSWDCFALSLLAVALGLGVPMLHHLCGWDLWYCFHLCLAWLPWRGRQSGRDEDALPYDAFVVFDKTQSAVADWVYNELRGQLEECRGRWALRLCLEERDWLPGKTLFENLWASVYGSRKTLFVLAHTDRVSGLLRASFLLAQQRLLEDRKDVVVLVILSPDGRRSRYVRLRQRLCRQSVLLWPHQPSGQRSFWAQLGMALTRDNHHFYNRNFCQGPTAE
Type: cell-based
Parameters: host or cells: HEK293 (HEK-Blue)
Source text: A stable HEK293-Blue-hTLR-9 cell line was purchased from InvivoGen (Cat.#: hkb-htlr9, San Diego, California, USA). These cells were originally designed for studying the stimulation of human TLR9 by monitoring the activation of NF-κB. A SEAP (secreted embryonic alkaline phosphatase) reporter gene was placed under the control of the IFN-β minimal promoter fused to five NF-κB and AP-1-binding sites. The SEAP was induced by activating NF-κB and AP-1 via stimulating HEK-Blue hTLR9 cells with TLR9 ligands. Therefore, the reporter expression was declined by TLR9 antagonist under the stimulation of a ligand, such as ODN2006 (Cat.#: tlrl-2006-1, Invivogen, San Diego, California, USA), for incubation of 20 hrs. The cell culture supernatant SEAP reporter activity was determined using QUANTI-Blue™ kit (Cat.#: rep-qb 1, Invivogen, San Diego, California, USA) at a wavelength of 640 nm, a detection medium that turns purple or blue in the presence of alkaline phosphatase.
HEK293-Blue-hTLR9 cells were incubated at a density of 250,000-450,000 cells/mL in a volume of 170 µL in a 96-well plate in Dulbecco's Modified Eagle's medium (DMEM) containing 4.5 g/L glucose, 50 U/mL penicillin, […], […], 2 mM L-glutamine, 10% (v/v) heat-inactivated fetal bovine serum with addition of 20 µL test compound in a serial dilution in the presence of final DMSO at 1% and 10 µL of 20uM ODN2006 in above DMEM, perform incubation under 37 °C in a CO2 incubator for 20 hrs. Then 20 µL of the supernatant from each well was incubated with 180 µL Quanti-blue substrate solution at 37 °C for 2 hrs and the absorbance was read at 620-655 nm using a spectrophotometer. The signaling pathway that TLR9 activation leads to downstream NF-κB activation has been widely accepted, and therefore similar reporter assay was modified for evaluating TLR9 antagonist.

IC50 | SMILES
34 nM | C[C@@H]1CN(c2ccc(C#N)c3ncccc23)C[C@H](CN2CCC(Nc3ccc4c(c3)CNC4)C2)O1 (stereo partly drawn) [Example 38, 5-[(2S,6R)-2-[[3-(isoindolin-5-ylamino)pyrrolidin-1-yl]methyl]-6-methyl-morpholin-4-yl]quinoline-8-carbonitrile]
114 nM | C[C@@H]1CN(c2ccc(C#N)c3ncccc23)C[C@H](CN2CC3(C2)CN(c2cnc4c(c2)CCNC4)CCO3)O1 [Example 46, 5-[(2R,6S)-2-methyl-6-[[8-(5,6,7,8-tetrahydro-1,7-naphthyridin-3-yl)-5-oxa-2,8-diazaspiro[3.5]nonan-2-yl]methyl]morpholin-4-yl]quinoline-8-carbonitrile]
109 nM | C[C@@H]1CN(c2ccc(C#N)c3ncccc23)C[C@H](CN2CCN(c3ccc4c(c3)CNC4)C(CO)C2)O1 (stereo partly drawn) [Example 13, 5-[(2S,6R)-2-[[3-(hydroxymethyl)-4-isoindolin-5-yl-piperazin-1-yl]methyl]-6-methyl-morpholin-4-yl]quinoline-8-carbonitrile]
90 nM | C[C@@H]1CN(c2ccc(C#N)c3nccnc23)C[C@H](CN2CCN(c3cc4c(cn3)CN[C@@H](C)C4)CC2)O1 (single isomer, unassigned) [Example 84]
52 nM | C[C@@H]1CN(c2ccc(C#N)c3ncccc23)C[C@H](CN2CCN(c3cnc4c(c3)CNCC4)CC2)O1 [Example 21, 5-[(2R,6S)-2-methyl-6-[[4-(5,6,7,8-tetrahydro-1,6-naphthyridin-3-yl)piperazin-1-yl]methyl]morpholin-4-yl]quinoline-8-carbonitrile]
97 nM | C[C@@H]1CN(c2ccc(C#N)c3ncccc23)C[C@H](CN2CCN(c3cc4c(cn3)C[C@H](C)NC4)CC2)O1 (single isomer, unassigned) [Example 76]
7030 nM | C[C@@H]1CN(c2ccc(C#N)c3ncccc23)C[C@H](CN2CCN(c3ccc(Cl)cc3)CC2)O1 [Example R2, 5-[(2S,6R)-2-[[4-(4-chlorophenyl)piperazin-1-yl]methyl]-6-methyl-morpholin-4-yl]quinoline-8-carbonitrile, reference compound]
41 nM | C[C@@H]1CN(c2ccc(C#N)c3ncccc23)C[C@H](CN2CCN(c3ccc4c(n3)CNC4)CC2)O1 [Example 30, 5-[(2S,6R)-2-[[4-(6,7-dihydro-5H-pyrrolo[3,4-b]pyridin-2-yl)piperazin-1-yl]methyl]-6-methyl-morpholin-4-yl] quinoline-8-carbonitrile]
90 nM | C[C@@H]1CN(c2ccc(C#N)c3ncccc23)C[C@H](CN2CCCN(c3ncc4c(n3)CCNC4)CC2)O1 [Example 39, 5-[(2R,6S)-2-methyl-6-[[4-(5,6,7,8-tetrahydropyrido[4,3-d]pyrimidin-2-yl)-1,4-diazepan-1-yl]methyl]morpholin-4-yl]quinoline-8-carbonitrile]
99 nM | C[C@@H]1CN(c2ccc(C#N)c3ncccc23)C[C@H](CN2CCC(Nc3ncc4c(n3)CNC4)C2)O1 (stereo partly drawn) [Example 32, 5-[(2S,6R)-2-[[3-(6,7-dihydro-5H-pyrrolo[3,4-d]pyrimidin-2-ylamino)pyrrolidin-1-yl]methyl]-6-methyl-morpholin-4-yl]quinoline-8-carbonitrile]
140 nM | C[C@@H]1CN(c2ccc(C#N)c3ncccc23)C[C@H](CN2CCN(c3nc4c(s3)CNCC4)CC2)O1 [Example 31, 5-[(2R,6S)-2-methyl-6-[[4-(4,5,6,7-tetrahydrothiazolo[5,4-c]pyridin-2-yl)piperazin-1-yl]methyl]morpholin-4-yl]quinoline-8-carbonitrile]
68 nM | C[C@@H]1CN(c2ccc(C#N)c3ncccc23)C[C@H](CN2CCN(c3cc4c(cn3)CCN[C@H]4C)CC2)O1 (single isomer, unassigned) [Example 75]
48 nM | C[C@@H]1CN(c2ccc(C#N)c3ncsc23)C[C@H](CN2CCN(c3cnc4c(c3)CNC4)CC2)O1 [Example 8, 7-[(2S,6R)-2-[[4-(6,7-dihydro-5H-pyrrolo[3,4-b]pyridin-3-yl)piperazin-1-yl]methyl]-6-methyl-morpholin-4-yl]-1,3-benzothiazole-4-carbonitrile]
56 nM | C[C@@H]1CN(c2ccc(C#N)c3ncccc23)C[C@H](CN2CC3(C2)CN(c2cc4c(cn2)CCNC4)CCO3)O1 [Example 48, 5-[(2R,6S)-2-methyl-6-[[8-(5,6,7,8-tetrahydro-2,6-naphthyridin-3-yl)-5-oxa-2,8-diazaspiro[3.5]nonan-2-yl]methyl]morpholin-4-yl]quinoline-8-carbonitrile]
92 nM | COC1CNCc2ccc(N3CCN(C[C@H]4CN(c5ccc(C#N)c6ncccc56)C[C@@H](C)O4)CC3)cc21 (stereo partly drawn) [Example 58, 5-[(2S,6R)-2-[[4-(4-methoxy-1,2,3,4-tetrahydroisoquinolin-6-yl)piperazin-1-yl]methyl]-6-methyl-morpholin-4-yl]quinoline-8-carbonitrile]
45 nM | C[C@@H]1CN(c2ccc(C#N)c3ncccc23)C[C@H](CN2CC3(CCN3c3ccc4c(n3)CCNC4)C2)O1 [Example 36, 5-[(2R,6S)-2-methyl-6-[[1-(5,6,7,8-tetrahydro-1,6-naphthyridin-2-yl)-1,6-diazaspiro[3.3]heptan-6-yl]methyl]morpholin-4-yl]quinoline-8-carbonitrile]
92 nM | C[C@@H]1CN(c2ccc(C#N)c3ncccc23)C[C@H](CN2CCN(c3ccc4c(n3)CN[C@@H]4C)CC2)O1 (single isomer, unassigned) [Example 64]
108 nM | C[C@@H]1CN(c2ccc(C#N)c3nccnc23)C[C@H](CN2CCN(c3ccc4c(n3)CN[C@@H]4C)CC2)O1 (single isomer, unassigned) [Example 79]
91 nM | C[C@@H]1CN(c2ccc(C#N)c3ncccc23)C[C@H](CN2CCN(c3ccc4c(c3)CN(CCO)C4)CC2)O1 [Example 16, 5-[(2S,6R)-2-[[4-[2-(2-hydroxyethyl)isoindolin-5-yl]piperazin-1-yl]methyl]-6-methyl-morpholin-4-yl]quinoline-8-carbonitrile]
60 nM | CC1NCc2ncc(N3CCN(C[C@H]4CN(c5ccc(C#N)c6ncccc56)C[C@@H](C)O4)CC3)cc21 (stereo partly drawn) [Example 41, 5-[(2R,6S)-2-methyl-6-[[4-(5-methyl-6,7-dihydro-5H-pyrrolo[3,4-b]pyridin-3-yl)piperazin-1-yl]methyl]morpholin-4-yl]quinoline-8-carbonitrile]
111 nM | C[C@@H]1CN(c2ccc(C#N)c3ncccc23)C[C@H](CNC2CN(c3cnc4c(c3)CNC4)C2)O1 [Example 43, 5-[(2S,6R)-2-[[[1-(6,7-dihydro-5H-pyrrolo[3,4-b]pyridin-3-yl)azetidin-3-yl]amino]methyl]-6-methyl-morpholin-4-yl]quinoline-8-carbonitrile]
86 nM | C[C@@H]1CN(c2ccc(C#N)c3ncccc23)C[C@H](CN2CCN(c3ccc4c(n3)CCN(C)C4)CC2)O1 [Example 34, 5-[(2R,6S)-2-methyl-6-[[4-(6-methyl-7,8-dihydro-5H-1,6-naphthyridin-2-yl)piperazin-1-yl]methyl]morpholin-4-yl]quinoline-8-carbonitrile]
